The values that follow come from patent US20120035214A1, “RENIN INHIBITORS” (Merck Canada Inc., priority 2009, published 2012).

SMILES strings stand for the structures. Some results are limits rather than exact numbers.

Assay [1] addresses T1, Human recombinant renin (Homo sapiens, UniProt P00797).
T1 construct: purchased Proteos
T1 sequence (P00797 67-406): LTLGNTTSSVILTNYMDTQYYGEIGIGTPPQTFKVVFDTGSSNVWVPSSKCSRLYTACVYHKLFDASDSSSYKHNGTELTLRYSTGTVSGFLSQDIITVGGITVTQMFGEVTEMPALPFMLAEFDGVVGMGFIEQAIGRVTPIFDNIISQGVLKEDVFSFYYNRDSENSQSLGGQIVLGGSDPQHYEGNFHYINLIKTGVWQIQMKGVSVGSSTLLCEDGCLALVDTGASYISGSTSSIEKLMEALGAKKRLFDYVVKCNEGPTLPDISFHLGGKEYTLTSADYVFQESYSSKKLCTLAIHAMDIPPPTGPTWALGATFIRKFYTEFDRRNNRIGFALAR
In words: Inhibition of human recombinant renin (QFRET, buffer). It is filed as biochemical. As to conditions: buffer: 50 mM MOPS pH 7.4, 100 mM NaCl, 0.002% Tween 20; 37° C., 3 hours. The procedure:
Inhibition of Human Recombinant Renin
Human recombinant renin (Proteos) in 50 mM MOPS pH 7.4, 100 mM NaCl, 0.002% Tween 20 at a final concentration of […] is incubated with inhibitors from a 50 fold concentrated DMSO solution and 6 μM of an internally-quenched fluorescent peptide: DNP-[…]D,L-Amp (SEQ ID NO: 1); Paschalidou K. et al., Biochem J., 2004, 382, 1031). The reactions take place in a Costar 384 well black plate (#3573) at 37° C. for 3 hours. Fluorescence is measured at times 0 and 3 hours with a SpectraMax Gemini EM reader set at an excitation wavelength of 328 nm and at an emission wavelength of 388 nm. Background fluorescence at t=0 is subtracted from the measurement at t=3 hours. Inhibitory activity of the compounds is expressed as IC50.

Assay [2] concerns the target T2, recombinant renin in human plasma (Homo sapiens, UniProt P00797).
T2 construct: purchased Proteos
T2 sequence (P00797 67-406): T1 sequence (P00797 67-406)
The assay can be described thus: Inhibition of renin in human plasma (QFRET, plasma). The conditions noted are these: human EDTA plasma with 1 nM recombinant renin added; 37° C., 1 hour. In kind it is biochemical. On the procedure: Inhibition of Renin in Human Plasma
Human EDTA-collected plasma is rapidly thawed in warm water and centrifuged at 2900 g for 15 minutes at 4° C. The supernatant is collected and recombinant renin (Proteos) is added at a final concentration of 1 nM. The plasma is transferred to a Costar black 384 well plate (#3573). Renin inhibitors are added from a 17.5 fold concentrated DMSO solution and pre-incubated at 37° C. for 10 minutes. The internally-quench fluorescent peptide QXL520™-[…](5-FAM) (Anaspec), SEQ ID NO: 2, is diluted in 3M Tris pH 7.2, 200 mM EDTA and added to the plasma. The final concentrations are: 6 μM substrate, 342 mM Tris, 23 mM EDTA. The plate is incubated at 37° C. for 1 hour. The plate is read in a SpectraMax Gemini EM reader set at an excitation wavelength of 490 nm and an emission wavelength of 520 nm at times 0 and 1 hour. Background fluorescence at t=0 is subtracted from the measurement at t=1 hour. Inhibitory activity of the compounds is expressed as IC50.

The IC50 is the point on the concentration scale where inhibition reaches its midpoint. Take `Cn1c(-c2ccccc2)cnc1[C@H]1CNCC[C@]1(O)c1ccc(F)c(F)c1` [Structure 92]: the IC50 was 1990 nM in assay [1] and more than 28000 nM in assay [2]. As for `O[C@]1(c2ccc(F)c(F)c2)CCNC[C@@H]1c1cc(-c2c(Cl)cccc2Cl)no1` [Structure 68], the IC50 in assay [1] was 1210 nM; in assay [2] it was more than 9500 nM. As to `COCCCc1ccccc1-c1ccc([C@H]2CNCC[C@@H]2c2ccccc2)c(C)c1` (racemic) [Structure 1], the IC50 was 620 nM in assay [1] and more than 10000 nM in assay [2].

Regarding `Cc1cc(-c2ccccc2CCNC(=O)C(F)(F)F)ccc1[C@H]1CNCC[C@@H]1c1cc(F)cc(F)c1` (racemic) [Structure 20], the values for the IC50 in assay [1] and in assay [2] were 0.57 nM and 25 nM, respectively. With `Cc1cc(-c2ccccc2OCc2ccccc2)ccc1[C@H]1CNCC[C@@H]1c1cc(F)cc(F)c1` (racemic) [Structure 37], the values for the IC50 in assay [1] and in assay [2] were 87 nM and 12400 nM, respectively. For the molecule `CC(=O)NCCc1ccccc1-c1onc([C@H]2CNCC[C@]2(O)c2ccc(F)c(F)c2)c1C(C)O` (stereo partly shown) [Structure 85], the IC50 in assay [1] turned out to be 4.3 nM; in assay [2], 4.5 nM. As to `O[C@]1(c2ccc(F)c(F)c2)CCNC[C@@H]1c1cc(-c2c(Cl)cccc2Cl)on1` [Structure 79], the IC50 in assay [1] was 1330 nM; in assay [2], more than 28000 nM. Take `CC(=O)NCCc1ccccc1-c1ccc([C@@H]2CNCC[C@H]2c2cccnc2)c(C)c1` [Structure 5]: the results for the IC50 in assay [1] and in assay [2] were 1410 nM and 7280 nM, respectively. Consider `CC(=O)NCCc1ccccc1-c1ccc([C@H]2CNCC[C@@H]2c2ccn(C)c(=O)c2)c(Cl)c1` (racemic) [Structure 58], for which the IC50 in assay [1] came out at 3.6 nM; in assay [2], 7.1 nM. Consider `COCCCc1ccccc1-c1ccc([C@H]2CNCC[C@@H]2c2cc(F)cc(F)c2)c(C)c1` (racemic) [Structure 8], for which the concentration for half-maximal inhibition (IC50) in assay [1] came to 4.3 nM; in assay [2], 1180 nM.

As for `COCCC[C@@H](CNC(C)=O)c1ccccc1-c1onc([C@H]2CNCC[C@]2(O)c2ccc(F)c(F)c2)c1Br` [Structure 100], the IC50 in assay [1] turned out to be 1.2 nM; in assay [2] it was 3.9 nM. On to `CC(=O)NCCc1ccccc1-c1noc([C@H]2CNCC[C@]2(O)c2ccc(F)c(F)c2)c1Br` [Structure 76], for which the IC50 was determined as 0.36 nM in assay [1] and 1.6 nM in assay [2]. In the case of `Cc1cc(-c2ccccc2CCNC(=O)C2CC2)ccc1[C@H]1CNCC[C@@H]1c1cc(F)cc(F)c1` (racemic) [Structure 31], the IC50 in assay [1] worked out at 4.4 nM; in assay [2] it was 130 nM. For the molecule `CC(=O)NCCc1ccccc1-c1onc([C@H]2CNCC[C@@H]2c2ccc(F)c(F)c2)c1Br` [Structure 107], the IC50 is 0.26 nM in assay [1] and 1.2 nM in assay [2]. As to `COCCCc1ccccc1-c1ccc([C@H]2CNCC[C@]2(O)c2cc(F)cc(F)c2)c(C)c1` (racemic) [Structure 39], the IC50 came out at 4.2 nM in assay [1] and 750 nM in assay [2]. For the molecule `CC(=O)NCCc1ccccc1-c1onc([C@H]2CNCC[C@]2(F)c2ccc(F)c(F)c2)c1Br` [Structure 81], the half-maximal inhibitory concentration (IC50) is 0.053 nM in assay [1] and 0.44 nM in assay [2]. For the molecule `Cc1cc(-c2ccccc2CCNC(=O)c2cnn(C)c2)ccc1[C@H]1CNCC[C@@H]1c1cc(F)cc(F)c1` (racemic) [Structure 24], the IC50 in assay [1] came to 73 nM; in assay [2], 1010 nM. Take `COCCCc1ccccc1-c1cc(C)c([C@H]2CNCC[C@@H]2c2ccc(Cl)c(F)c2)cn1` (racemic) [Structure 50]: the values for the IC50 in assay [1] and in assay [2] were 1.5 nM and 230 nM, respectively. In the case of `O[C@]1(c2ccc(F)c(F)c2)CCNC[C@@H]1c1onc(-c2cccc3ccccc23)c1Br` [Structure 75], the IC50 in assay [1] worked out at 0.064 nM; in assay [2] it was 4.7 nM. Turning to `CC(O)c1c([C@H]2CNCC[C@]2(O)c2ccc(F)c(F)c2)noc1-c1c(Cl)cccc1Cl` (stereo partly shown) [Structure 78], the IC50 turned out to be 1.8 nM in assay [1] and 24 nM in assay [2]. Turning to `CCOC(=O)NCCc1ccccc1-c1ccc([C@H]2CNCC[C@@H]2c2ccn(C)c(=O)c2)c(Cl)c1` (racemic) [Structure 63], the IC50 in assay [1] was 16 nM; in assay [2] it was 24 nM. Consider `CC(=O)NCCc1ccccc1-c1onc([C@H]2CNCC[C@]2(O)c2ccc(F)c(F)c2)c1Cl` [Structure 104], for which the IC50 in assay [1] was determined as 0.7 nM; in assay [2], 1.9 nM. `CCC(=O)NCCc1ccccc1-c1ccc([C@H]2CNCC[C@@H]2c2ccn(C)c(=O)c2)c(Cl)c1` (racemic) [Structure 61]: the results for the IC50 in assay [1] and in assay [2] were 6.2 nM and 7.9 nM, respectively. As for `COC(=O)NCCc1ccccc1-c1ccc([C@H]2CNCC[C@@H]2c2ccc(F)c(F)c2)c(Cl)c1` (racemic) [Structure 42], the IC50 in assay [1] was 0.14 nM; in assay [2], 9.8 nM. Regarding `Cc1cc(-c2ccccc2CCNS(C)(=O)=O)ccc1[C@H]1CNCC[C@@H]1c1cc(F)cc(F)c1` (racemic) [Structure 19], the results for the IC50 in assay [1] and in assay [2] were 71 nM and 1810 nM, respectively. On to `O[C@]1(c2ccc(F)c(F)c2)CCNC[C@@H]1c1cc(-c2ccc(F)cc2Br)no1` [Structure 67], for which the values for the IC50 in assay [1] and in assay [2] were 400 nM and 8650 nM, respectively.

As for `COCCCC(CNC(C)=O)c1ccccc1-c1onc([C@H]2CNCC[C@@H]2c2ccc(OCCOc3c(Cl)cc(C)cc3Cl)cc2)c1Br` (stereo partly shown) [Structure 108], the values for the IC50 in assay [1] and in assay [2] were 0.07 nM and 2 nM, respectively. As for `O[C@]1(c2ccc(F)c(F)c2)CCNC[C@@H]1c1onc(-c2ccccc2Cl)c1Br` [Structure 72], the IC50 in assay [1] came out at 1.1 nM; in assay [2], 27 nM.

For the molecule `O[C@]1(c2ccc(F)c(F)c2)CCNC[C@@H]1c1onc(-c2c(Cl)cccc2Cl)c1Br` [Structure 70], the IC50 in assay [1] was 3.7 nM; in assay [2], 130 nM. The matching figures for `Cc1cc(-c2ccccc2CCCO)ccc1[C@H]1CNCC[C@@H]1c1cc(F)cc(F)c1` (racemic) [Structure 7, (+/−)-trans-3-{4′-[4-(3,5-difluorophenyl)piperidin-3-yl]-3′-methylbiphenyl-2-yl}propan-1-ol]: 85 nM and 3150 nM. `O=C(CO)NCCc1ccccc1-c1ccc([C@H]2CNCC[C@@H]2c2ccc(F)c(F)c2)c(Cl)c1` (racemic) [Structure 43]: the IC50 in assay [1] was 0.26 nM; in assay [2], 3.5 nM. The matching figures for `CC(=O)NCCc1ccccc1-c1ccc([C@H]2CNCC[C@]2(O)c2ccc(F)c(F)c2)c(C)c1` (racemic) [Structure 51]: 0.5 nM and 5 nM. As to `CCOCC(F)(F)COCc1ccc([C@@]2(O)CCNC[C@@H]2c2noc(-c3ccccc3CCNC(C)=O)c2Br)cc1` [Structure 114], the IC50 turned out to be 0.19 nM in assay [1] and 0.58 nM in assay [2]. For `O=C(NCCc1ccccc1-c1ccc([C@H]2CNCC[C@@H]2c2ccc(F)c(F)c2)c(Cl)c1)C(F)(F)F` (racemic) [Structure 41], the half-inhibitory concentration (IC50) in assay [1] amounted to 0.1 nM; in assay [2] it was 6.6 nM. With `Cc1cc(-c2ccccc2CCNC(=O)OCc2ccccc2)ccc1[C@H]1CNCC[C@@H]1c1cc(F)cc(F)c1` (racemic) [Structure 25], the IC50 in assay [1] worked out at 18 nM; in assay [2], 5470 nM. The matching figures for `COC[C@H](C)COc1ccc([C@@]2(O)CCNC[C@@H]2c2ccc(-c3ccccc3CCNC(C)=O)cc2C)cc1` [Structure 131]: 1.2 nM and 18 nM. Take `COCCCc1ccccc1-c1ccc([C@H]2CNCC[C@@H]2c2cccnc2N)c(Cl)c1` (racemic) [Structure 53]: the values for the IC50 in assay [1] and in assay [2] were 12 nM and 250 nM, respectively. On to `COc1cc(CCNC(C)=O)c(-c2ccc([C@H]3CNCC[C@@H]3c3ccn(C)c(=O)c3)c(Cl)c2)cc1OC` (racemic) [Structure 66], for which the IC50 in assay [1] worked out at 1320 nM; in assay [2], 4900 nM. The matching figures for `COC[C@H](C)COCc1ccc([C@@]2(O)CCNC[C@@H]2c2ccc(-c3ccccc3CCNC(=O)OC)cc2C)cc1` [Structure 127]: 0.03 nM and 1.3 nM. For `O[C@]1(c2ccc(F)c(F)c2)CCNC[C@@H]1c1cc(-c2ccc(F)cc2Cl)no1` [Structure 69], in assay [1], the IC50 is 2500 nM.
